Source: PubChem BioAssay AID2060882 (Molecular Pharmacology Branch, DTP, NCI, 2025)
pIC50: −log10 of the molar value.

System: 898857-211-R-J1-PDC complex spheroids, growth % test/control
Assay: Anticancer human tumor 898857-211-R-J1-PDC patient-derived melanoma cell line growth inhibition [RAS]
Conditions: for pIC50: curve of first compound; for viability, T/C: stronger effect = lower value; active = viability on the fitted dose curve at most 10% of control; inactive = the rest
Summary of the method: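 Multi-cell-type spheroids: tumor cells plus HUVEC endothelial cells and mesenchymal stem cells. RAS-pathway inhibitors were combined with targeted agents, each dosed in half-log steps down from clinical Cmax, or from 10 microM when Cmax was unknown.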
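Note: spheroids exposed to compound for seven days before readout.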
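Throughout, for viability, T/C: 100% = DMSO vehicle control wells.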

C=CC(=O)Nc1cc(Nc2nccc(-c3cn(C)c4ccccc34)n2)c(OC)cc1N(C)CCN(C)C + CCn1c(-c2cc(N3CCN(C)CC3)cnc2C(C)OC)c2c3cc(ccc31)-c1csc(n1)CC(NC(=O)C1CC1C)C(=O)N1CCCC(N1)C(=O)OCC(C)(C)C2
6.42: pIC50 (second compound 0.003 µM)
6.25: pIC50 (second compound 0.03 µM)
inactive: viability, T/C (second compound 0.000949 µM, first compound 0.00316 µM) 101% | viability, T/C (second compound 0.000949 µM, first compound 0.01 µM) 101% | viability, T/C (second compound 0.000949 µM, first compound 0.0316 µM) 106% | viability, T/C (second compound 0.000949 µM, first compound 0.1 µM) 102% | viability, T/C (second compound 0.000949 µM, first compound 0.316 µM) 73.7% | viability, T/C (second compound 0.000949 µM, first compound 1 µM) 45.5% | viability, T/C (second compound 0.003 µM, first compound 0.00316 µM) 99% | viability, T/C (second compound 0.003 µM, first compound 0.01 µM) 113% | viability, T/C (second compound 0.003 µM, first compound 0.0316 µM) 97% | viability, T/C (second compound 0.003 µM, first compound 0.1 µM) 88.9% | viability, T/C (second compound 0.003 µM, first compound 0.316 µM) 52.4% | viability, T/C (second compound 0.003 µM, first compound 1 µM) 34.9% | viability, T/C (second compound 0.00949 µM, first compound 0.00316 µM) 105% | viability, T/C (second compound 0.00949 µM, first compound 0.01 µM) 112% | viability, T/C (second compound 0.00949 µM, first compound 0.0316 µM) 114% | viability, T/C (second compound 0.00949 µM, first compound 0.1 µM) 88.9% | viability, T/C (second compound 0.00949 µM, first compound 0.316 µM) 65.5% | viability, T/C (second compound 0.00949 µM, first compound 1 µM) 33.7% | viability, T/C (second compound 0.03 µM, first compound 0.00316 µM) 102% | viability, T/C (second compound 0.03 µM, first compound 0.01 µM) 96.2% | viability, T/C (second compound 0.03 µM, first compound 0.0316 µM) 110% | viability, T/C (second compound 0.03 µM, first compound 0.1 µM) 91.3% | viability, T/C (second compound 0.03 µM, first compound 0.316 µM) 64.7% | viability, T/C (second compound 0.03 µM, first compound 1 µM) 35.6% | viability, T/C (second compound 0.0949 µM, first compound 0.00316 µM) 106% | viability, T/C (second compound 0.0949 µM, first compound 0.01 µM) 104% | viability, T/C (second compound 0.0949 µM, first compound 0.0316 µM) 101% | viability, T/C (second compound 0.0949 µM, first compound 0.1 µM) 96% | viability, T/C (second compound 0.0949 µM, first compound 0.316 µM) 60.5% | viability, T/C (second compound 0.0949 µM, first compound 1 µM) 41.1% | viability, T/C (second compound 0.3 µM, first compound 0.00316 µM) 125% | viability, T/C (second compound 0.3 µM, first compound 0.01 µM) 114% | viability, T/C (second compound 0.3 µM, first compound 0.0316 µM) 102% | viability, T/C (second compound 0.3 µM, first compound 0.1 µM) 97% | viability, T/C (second compound 0.3 µM, first compound 0.316 µM) 64.7% | viability, T/C (second compound 0.3 µM, first compound 1 µM) 36.2%
6.23: pIC50 (second compound 0.0949 µM)
6.27: pIC50 (second compound 0.00949 µM)
6.22: pIC50 (second compound 0.3 µM)
6.08: pIC50 (second compound 0.000949 µM)
